Earlier results, collected in US20180256556A1, “METHODS FOR TREATING AN IMPAIRMENT IN GAIT AND/OR BALANCE IN PATIENTS WITH MULTIPLE SCLEROSIS USING AN AMINOPYRIDINE” (Acorda Therapeutics, Inc., priority 2012, published 2018).

Assays:
[1] = test system: patients with multiple sclerosis; conditions: p<0.05
potassium channels = conditions: high concentration (millimolar)

Nc1ccncc1 [4-AP, 4-aminopyridine]
Leg strength (LEMMT) relative to placebo [1]: statistically significantly improved
Potassium channel blocking activity (potassium channels): broad-spectrum blocker of potassium channels
